The NIST ThermoML archive (doi:10.1021/je2002368)

Assays:
[1] = 101.33 kPa, Liquid; for viscosity: Concentric cylinders viscometry; for mass density: Vibrating tube method
[2] = refractive index (Na D-line) (dimensionless); settings: 101.33 kPa, Liquid, Standard Abbe refractometry

CCn1cc[n+](C)c1.O=C([O-])[C@@H]1CCCN1 [1-ethyl-3-methyl-1H-imidazolium L-prolinate]
Settings | mass density, [1] [kg/m3] | refractive index, [2] | viscosity, [1] [mPa·s]
293.15 K | 1158.14 | 1.51523 | 626.95
298.15 K | 1155.08 | 1.51372 | 426.12
303.15 K | 1152 | 1.51229 | 295.17
308.15 K | 1148.9 | 1.51073 | 210.2
313.15 K | 1145.78 | 1.50924 | 153.57
318.15 K | 1142.64 | 1.50774 | 114.27
323.15 K | 1139.5 | 1.50621 | 87.05
328.15 K | 1136.36 | 1.50454 | 67.61
333.15 K | 1133.22 | 1.5031 | 54.04
338.15 K | 1130.08 | – | 43.43
343.15 K | 1126.93 | – | 35.47
348.15 K | 1123.79 | – | 29.36
353.15 K | 1120.63 | – | 24.5

CCn1cc[n+](C)c1.C[C@H](N)C(=O)[O-] [1-ethyl-3-methylimidazolium L-alaninate]
Settings | mass density, [1] [kg/m3] | refractive index, [2] | viscosity, [1] [mPa·s]
293.15 K | 1139.2 | 1.50586 | 235.36
298.15 K | 1136.1 | 1.5041 | 171.19
303.15 K | 1133 | 1.50246 | 126.6
308.15 K | 1129.8 | 1.50072 | 93.87
313.15 K | 1126.6 | 1.49908 | 72.02
318.15 K | 1123.5 | 1.49735 | 56.62
323.15 K | 1120.3 | 1.49568 | 45.13
328.15 K | 1117.2 | 1.49395 | 36.56
333.15 K | 1114 | 1.49228 | 30.1
338.15 K | 1110.9 | – | 25.02
343.15 K | 1107.8 | – | 21.21
348.15 K | 1104.7 | – | 18.05
353.15 K | 1101.6 | – | 15.51

CCn1cc[n+](C)c1.NCC(=O)[O-] [1-ethyl-3-methylimidazolium ammonioacetate]
Settings | mass density, [1] [kg/m3] | refractive index, [2] | viscosity, [1] [mPa·s]
293.15 K | 1158 | 1.50628 | 80.37
298.15 K | 1154.7 | 1.50473 | 61.51
303.15 K | 1151.6 | 1.50313 | 47.75
308.15 K | 1148.5 | 1.50154 | 37.79
313.15 K | 1145.3 | 1.49988 | 30.31
318.15 K | 1142.2 | 1.49827 | 24.89
323.15 K | 1139 | 1.49657 | 20.64
328.15 K | 1135.8 | 1.49488 | 17.33
333.15 K | 1132.7 | 1.49321 | 14.72
338.15 K | 1129.5 | – | 12.64
343.15 K | 1126.3 | – | 10.94
348.15 K | 1123.2 | – | 9.55
353.15 K | 1120.1 | – | 8.38

CC[n+]1ccn(C)c1.N[C@@H](CO)C(=O)[O-] [3-ethyl-1-methyl-1H-imidazolium L-serinate]
Settings | mass density, [1] [kg/m3] | refractive index, [2] | viscosity, [1] [mPa·s]
293.15 K | 1198.3 | 1.51205 | 611.87
298.15 K | 1195.2 | 1.51069 | 410.86
303.15 K | 1191.9 | 1.50932 | 279.82
308.15 K | 1188.6 | 1.50791 | 196.7
313.15 K | 1185.2 | 1.50654 | 142.28
318.15 K | 1182 | 1.50511 | 105.8
323.15 K | 1178.9 | 1.50372 | 80.49
328.15 K | 1175.8 | 1.50224 | 62.48
333.15 K | 1172.6 | 1.50083 | 49.31
338.15 K | 1169.5 | – | 39.63
343.15 K | 1166.3 | – | 32.36
348.15 K | 1162.9 | – | 26.82
353.15 K | 1159.8 | – | 22.47
